Test results: ChEMBL document CHEMBL3779790, “Novel Imbricatolic acid derivatives as protein tyrosine phosphatase-1B inhibitors: Design, synthesis, biological evaluation and molecular docking” (Bioorg Med Chem Lett, 2016)

How the values were obtained:
[1] = target: T1, Tyrosine-protein phosphatase non-receptor type 1 (Homo sapiens) (UniProt P18031); experiment: Inhibition of human recombinant PTP-1B using IR5 insulin receptor residues as substrate at 10 uM after 30 mins by malachite green assay
T1 sequence (whole entry): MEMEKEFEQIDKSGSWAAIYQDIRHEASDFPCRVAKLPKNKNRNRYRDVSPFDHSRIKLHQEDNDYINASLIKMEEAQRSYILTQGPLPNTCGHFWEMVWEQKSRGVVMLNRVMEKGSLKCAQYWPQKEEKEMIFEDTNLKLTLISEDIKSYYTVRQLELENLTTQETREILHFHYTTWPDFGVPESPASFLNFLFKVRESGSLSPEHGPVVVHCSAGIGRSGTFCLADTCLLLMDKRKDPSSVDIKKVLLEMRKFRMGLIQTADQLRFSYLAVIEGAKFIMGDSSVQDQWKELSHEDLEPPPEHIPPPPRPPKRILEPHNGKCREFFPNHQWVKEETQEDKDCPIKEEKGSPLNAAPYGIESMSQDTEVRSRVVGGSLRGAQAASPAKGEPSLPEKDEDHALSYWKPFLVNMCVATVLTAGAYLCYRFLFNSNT

[2] = target: T2, Tyrosine-protein phosphatase non-receptor type 1 (Homo sapiens, UniProt P18031); experiment: Inhibition of human recombinant PTP-1B using IR5 insulin receptor residues as substrate after 30 mins by malachite green assay
T2 sequence (P18031 whole entry): T1 sequence (whole entry)

[3] = target: T1, Tyrosine-protein phosphatase non-receptor type 1 (Homo sapiens); experiment: Inhibition of human recombinant PTP-1B using IR5 insulin receptor residues as substrate at 1 uM after 30 mins by malachite green assay
[4] = target: T1, Tyrosine-protein phosphatase non-receptor type 1 (Homo sapiens); experiment: Inhibition of human recombinant PTP-1B using IR5 insulin receptor residues as substrate at 5 uM after 30 mins by malachite green assay
[5] = target: T1, Tyrosine-protein phosphatase non-receptor type 1 (Homo sapiens); experiment: Inhibition of human recombinant PTP-1B using IR5 insulin receptor residues as substrate at 30 uM after 30 mins by malachite green assay
[6] = target: T1, Tyrosine-protein phosphatase non-receptor type 1 (Homo sapiens); experiment: Inhibition of human recombinant PTP-1B using IR5 insulin receptor residues as substrate at 100 uM after 30 mins by malachite green assay

Row | SMILES | inhibition [1] [%] | IC50 [2] [µM] | inhibition [3] [%] | inhibition [4] [%] | inhibition [5] [%] | inhibition [6] [%]
1 | C=C1CC[C@@H]2[C@](C)(CCC[C@]2(C)C(=O)OCC)[C@H]1CC[C@H](C)CCO | 23.1 |  |  |  |  | 
2 | C=C1CC[C@@H]2[C@](C)(CCC[C@]2(C)N=C=O)[C@H]1CC[C@H](C)CN=C=O | 45.7 |  |  |  |  | 
3 | C=C1CC[C@@H]2[C@](C)(CCC[C@]2(C)C(=O)O)[C@H]1CC[C@H](C)C/C=N/O | 40.1 |  |  |  |  | 
4 | C=C1CC[C@H]2[C@@](C)(CO)CCC[C@]2(C)[C@H]1CC[C@H](C)CCO | 29.5 |  |  |  |  | 
5 | C=C1CC[C@@H]2[C@](C)(CCC[C@]2(C)N=C=O)[C@H]1CC[C@H](C)C/C=N/OC(C)=O | 44.8 |  |  |  |  | 
6 | C=C1CC[C@H]2[C@@](C)(COC(C)=O)CCC[C@]2(C)[C@H]1CC[C@H](C)CCOC(C)=O | 34.2 |  |  |  |  | 
7 | C=C1CC[C@@H]2[C@](C)(CCC[C@]2(C)N=C=O)[C@H]1CC[C@H](C)CCO | 41.3 |  |  |  |  | 
8 | Cc1ccc(C(=O)Nc2ccc(S(=O)(=O)O)c3cc(S(=O)(=O)O)cc(S(=O)(=O)O)c23)cc1NC(=O)c1cccc(NC(=O)Nc2cccc(C(=O)Nc3cc(C(=O)Nc4ccc(S(=O)(=O)O)c5cc(S(=O)(=O)O)cc(S(=O)(=O)O)c45)ccc3C)c2)c1 | 64.3 |  |  |  |  | 

Now from value to molecule:

Row | inhibition [1] [%] | IC50 [2] [µM] | inhibition [3] [%] | inhibition [4] [%] | inhibition [5] [%] | inhibition [6] [%] | SMILES
9 | 43.5 |  |  |  |  |  | C=C1CC[C@@H]2[C@](C)(CCC[C@]2(C)C(=O)O)[C@H]1CC[C@H](C)C/C=N/OC(C)=O
10 | 61.5 | 6.3 | 8.2 | 25.9 | 79.2 | 87.2 | C=C1CC[C@@H]2[C@](C)(CCC[C@]2(C)NC(N)=O)[C@H]1CC[C@H](C)CCO
11 | 35.6 |  |  |  |  |  | C=C1CC[C@@H]2[C@](C)(CCC[C@]2(C)C(=O)O)[C@H]1CC[C@H](C)CC(=O)O
12 | 19.9 |  |  |  |  |  | C=C1CC[C@@H]2[C@](C)(CCC[C@]2(C)C(=O)O)[C@H]1CC[C@H](C)CC=O
13 | 59.9 | 7.8 | 7.1 | 38.2 | 63.2 | 69.2 | C=C1CC[C@@H]2[C@](C)(CCC[C@]2(C)NC(N)=O)[C@H]1CC[C@H](C)C/C=N/O
14 | 59.2 | 8.8 | 5.9 | 19.2 | 67.2 | 71.1 | C=C1CC[C@@H]2[C@](C)(CCC[C@]2(C)C(=O)O)[C@H]1CC[C@H](C)CCO [IMBRICATOLIC ACID]
15 | 65.3 | 7 | 11.2 | 31.7 | 79.1 | 82.2 | C=C1CC[C@@H]2[C@](C)(CCC[C@]2(C)NC(N)=O)[C@H]1CC[C@H](C)C/C=N/OC(C)=O
16 | 65.8 | 6.8 | 9.3 | 37.3 | 67.2 | 79.2 | C=C1CC[C@@H]2[C@](C)(CCC[C@]2(C)NC(N)=O)[C@H]1CC[C@H](C)CNC(N)=O
